Assay [1] deals with HMG-CoA reductase (HMGCR). Description: HMG-CoA reductase inhibitory activity (HMG-CoA Reductase Assay Kit, Abcam ab204701). Conditions: 1 mM peptide, 0.5 mM Atorvastatin as positive control, OD340, 37°C, mean ± SD, three biological replicates, Figure 3B. Type of assay: biochemical. On the procedure:
The HMG-CoA reductase inhibitory activities were determined using the HMG-CoA Reductase Assay Kit (Abcam, ab204701) as previously described ([19]). Enzyme activity was measured by monitoring the decrease in absorbance at 340 nm and 37°C, following the manufacturer’s instructions. The reaction mix consisted of a mixture of HMG-CoA:NADPH:HMG-CoA reductase buffer assay (12:4:174; 190 μL). In a 96-well flat-bottomed microtiter plate, 5 μL of HMG-CoA reductase, 2 μL of inhibitor, and 3 μL of buffer were mixed. The addition of 190 μL of reaction mix marked the initiation of the enzyme reaction. OD340 was measured for 10 min at 2-min intervals at 37°C.
HMGCR inhibition rate (%)=−ΔA340nm/ΔTEnzyme−−ΔA340nm/ΔTEnzyme+Inhubitor/−ΔA340nm/ΔTEnzyme×100.

The test system of assay [2] is high-fat Hep-G2 cells. Description: TG content in FFAs-induced high-fat Hep-G2 cells. Type of assay: cell-based. Particulars: 400 μM peptide with FFAs, 24 h; for TG content in high-fat Hep-G2 cells: mean ± SD, three biological replicates, Figure 4C, SD. On the procedure: (§1) Cells grown to the log phase were digested, gently mixed using a pipette, and collected via centrifugation. The cells were then resuspended in a culture medium and homogenized using a pipette. A hemocytometer was used to count the cells diluted to 2 × 10^5/mL using a complete medium. Then, 250 μL of the cell suspension was pipetted into a 48-well cell culture plate for incubation in a CO2 incubator at 37°C for 14–16 h. After reaching 80–90% confluency, cells were incubated with peptides (50, 100, 200, or 400 μM) and FFAs (10% oleic acid and palmitic acid) for 24 h. Control groups were performed without peptides or FFAs. The model groups were treated with FFAs only, without peptides. Next, the cells were washed with DPBS and lysed for 45 min on ice using 1.5% Triton-X100. TC, TG, HDL-C, and LDL-C levels were determined using Nanjing Jiancheng assay kits.

The subject of assay [3] is high-fat Hep-G2 cells. Description: TC content in FFAs-induced high-fat Hep-G2 cells. Format: cell-based. Particulars: 24 h; for TC level in high-fat Hep-G2 cells, dose effect: peptide 50, 100, 200, 400 μM with FFAs. As for the experimental part: as §1, with “After reaching 80–90% confluency, cells were incubated with peptides (50, 100, 200, or 400 μM) and FFAs (10% oleic acid and palmitic acid) for 24 h.” left out

Assay [4] in a line: Inhibition of cholesterol micelle solubility in vitro. Particulars: for Cholesterol micelle solubility inhibition rate: 1 mM peptide, micelles of 10 mM sodium taurocholate, 0.4 mM cholesterol, 1 mM oleic acid, pH 7.4, 37°C, 24 h, mean ± SD, three biological replicates, Figure 3C, SD; for Inhibition of cholesterol micellar solubility, comparison and dose trend: peptide 50, 100, 200, 400 μM, Figure 4D. As for the experimental part: After sequence identification, the peptide sequences were obtained through solid-phase synthesis by GenScript (Nanjing, China). The inhibitory effect of the peptide on cholesterol micelle solubility was measured as previously described with some modifications ([18]). Micellar solutions (1 mL) contained 10 mM sodium taurocholate, 0.4 mM cholesterol, 1 mM oleic acid, 132 mM NaCl, and 15 mM sodium phosphate (pH 7.4). […] After mixing, the samples were ultrasonically emulsified at 37°C for 30 min and incubated on a shaker at 37°C for 24 h. The samples were centrifuged at 8,000 × g for 20 min, and a total cholesterol (T-CHO) assay kit (Jiancheng Bioengineering Institute, Nanjing, China) was used for measurement. The inhibitory effect of the peptide solution on cholesterol micelle solubility was calculated as follows: (1) Cholesterol micelle solubility inhibition rate() =C0−C1/C0×100 where C0 is the initial cholesterol concentration in the micelles, and C1 is the cholesterol concentration in the micelles after sample addition.

On to APDMAFPR, for which, in assay [1], the HMGCR inhibition rate is 59.55% ± 0.46. In the assay with high-fat Hep-G2 cells [2], the “Decrease of TG content compared with model group” value is 34.86% ± 0.08 and the “TG content in high-fat Hep-G2 cells” value is on record as 0.31 ± 0.04 mmol/gprot. Besides, in the assay with high-fat Hep-G2 cells [3] (Figure 4B), the “TC level in high-fat Hep-G2 cells, dose effect” value (shortened to “TC level … dose effect”) is on record as “not significant”. Further, in assay [4], the “Cholesterol micelle solubility inhibition rate” value was 35.87% ± 2.56; the “Inhibition of cholesterol micellar solubility, comparison and dose trend” value (shortened to “Inhibition … comparison and dose trend”) was “weakest inhibitory effect”.
With DYPRPW, the HMGCR inhibition rate in assay [1] is given as 51.81% ± 0.70. In addition, the “TC level in high-fat Hep-G2 cells compared with model group” value with high-fat Hep-G2 cells [3] (400 μM peptide with FFAs, Figure 4B) is on record as “significantly lower than that in the model group”. Also, the “TC level … dose effect” value in the assay with high-fat Hep-G2 cells [3] (Figure 4B) is listed as “the higher the concentration, the lower the TC level”. Moreover, in assay [4], the “Cholesterol micelle solubility inhibition rate” value is 37.29% ± 1.45; the “Inhibition … comparison and dose trend” value is reported as “superior inhibition rate”.
For the substance LPAYPMP, in assay [1], the HMGCR inhibition rate is 54.65% ± 0.36. Moreover, in the assay with high-fat Hep-G2 cells [3] (Figure 4B), the “TC level … dose effect” value was “not significant”. In assay [4], the “Cholesterol micelle solubility inhibition rate” value was 41.55% ± 5.48; the “Inhibition … comparison and dose trend” value was “showed inhibition of cholesterol micellar solubility”.
As for QDAVMPNPF, in the assay on high-fat Hep-G2 cells [2], the “Decrease of TG content compared with model group” value was 31.31% ± 0.10 and the “TG content in high-fat Hep-G2 cells” value was found to be 0.33 ± 0.05 mmol/gprot. Besides, the “TC level … dose effect” value with high-fat Hep-G2 cells [3] (Figure 4B) is on record as “not significant”. Besides, in assay [4], the “Cholesterol micelle solubility inhibition rate” value is 47.94% ± 0.58; the “Inhibition … comparison and dose trend” value is given as “showed inhibition of cholesterol micellar solubility”.
On to “SPADIGFH [abalone viscera peptide, top 20 after virtual screening, synthesized by GenScript]”, for which the HMGCR inhibition rate in assay [1] is given as 53.89% ± 3.89. Further, in assay [4], the “Cholesterol micelle solubility inhibition rate” value was 45.23% ± 3.68.
For the substance “WFKTM [abalone viscera peptide, top 20 after virtual screening, synthesized by GenScript]”, in the assay on high-fat Hep-G2 cells [3] (peptide 1 mM with FFAs, Figure 3A), the “TC accumulation in high-fat Hep-G2 cells compared with model group” value is “all peptides, except for WFKTM, alleviated TC accumulation”.

The values are drawn from PMC11730078, “Virtual screening and evaluation of bioactive peptides from Haliotis discus hannai as potential HMGCR inhibitors for hyperlipidemia treatment” (Frontiers in Nutrition, 2024).
